16 molecules from patent EP4745134A1 (Jiangsu Yahong Meditech Co., Ltd., priority 2023, dated 2025) can be followed below.

The test system of one assay is HCT116-WT cells. Description: Inhibitory activity against cell proliferation (CellTiter Glo, 6 days), HCT116-WT. It counts as cell-based. The following applies: 144 h, HCT116-WT cells, 6 days, CellTiter Glo; read-out: HCT116-WT IC50. In outline: (§1)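 Viability IC50s come from CellTiter Glo luminescence after 6 days' exposure to compound (8 concentrations, 4-fold steps, top 10000 nM), relative to DMSO wells. Cells were MTAP-KO or WT HCT116, seeded at 250 per well in McCoy's 5A with 10% FBS and incubated overnight before dosing.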

The next assay concerns HCT116 MTAP KO cells. In words: Inhibitory activity against cell proliferation (CellTiter Glo, 6 days), HCT116 MTAP KO. The class given is cell-based. Particulars: for IC50: Homo sapiens, HCT-116, 144 h, HCT116 MTAP KO cells, 6 days, CellTiter Glo, read-out: HCT116 MTAP KO IC50; for Selectivity HCT 116-WT/ HCT116 MTAP KO: ratio of IC50 HCT116-WT / HCT116 MTAP KO. In a few lines:
as §1
On the technique in general: In ATP-based viability assays light output follows the ATP content of the culture.

The target in a further assay is PRMT5-MTA (Homo sapiens, UniProt O14744). Description: Enzymatic inhibitory activity against PRMT5-MTA (AlphaScreen). The class given is biochemical. The following applies: read-out: IC50. In a few lines: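 PRMT5/[…] (1 nM) was preincubated for 30 min at room temperature with 1 µM […] and 2.5 µM SAM, then exposed to compound (10-point, 3-fold from 1000 nM) for 15 min at 23 °C. Histone H4 substrate (5 nM) was added and reacted for 45 min at 23 °C. Symmetric dimethyl-R3 H4 was detected by AlphaScreen and IC50 calculated.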
On the technique in general: Bead proximity is the source of the signal in Alpha formats.

PRMT5-MTA, sequence (O14744 whole entry): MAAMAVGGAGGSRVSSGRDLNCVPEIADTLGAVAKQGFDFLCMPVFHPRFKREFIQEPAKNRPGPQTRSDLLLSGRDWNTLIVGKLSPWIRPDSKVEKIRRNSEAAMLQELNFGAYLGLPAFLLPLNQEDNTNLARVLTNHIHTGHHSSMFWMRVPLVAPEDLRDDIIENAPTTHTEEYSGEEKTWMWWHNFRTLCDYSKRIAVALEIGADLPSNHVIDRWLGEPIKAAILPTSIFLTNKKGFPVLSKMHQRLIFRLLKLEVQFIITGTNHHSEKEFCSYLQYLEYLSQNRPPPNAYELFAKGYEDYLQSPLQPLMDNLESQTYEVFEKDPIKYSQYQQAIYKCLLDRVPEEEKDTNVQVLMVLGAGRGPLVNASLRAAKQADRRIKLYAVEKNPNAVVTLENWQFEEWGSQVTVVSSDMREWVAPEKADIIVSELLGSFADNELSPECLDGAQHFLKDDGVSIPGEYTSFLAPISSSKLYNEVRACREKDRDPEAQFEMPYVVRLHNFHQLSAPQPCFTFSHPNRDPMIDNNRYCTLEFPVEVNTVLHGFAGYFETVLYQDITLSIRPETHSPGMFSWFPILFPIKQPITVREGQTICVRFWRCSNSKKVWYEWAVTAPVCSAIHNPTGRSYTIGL
PRMT5-MTA, sequence (Q9BQA1 whole entry partner): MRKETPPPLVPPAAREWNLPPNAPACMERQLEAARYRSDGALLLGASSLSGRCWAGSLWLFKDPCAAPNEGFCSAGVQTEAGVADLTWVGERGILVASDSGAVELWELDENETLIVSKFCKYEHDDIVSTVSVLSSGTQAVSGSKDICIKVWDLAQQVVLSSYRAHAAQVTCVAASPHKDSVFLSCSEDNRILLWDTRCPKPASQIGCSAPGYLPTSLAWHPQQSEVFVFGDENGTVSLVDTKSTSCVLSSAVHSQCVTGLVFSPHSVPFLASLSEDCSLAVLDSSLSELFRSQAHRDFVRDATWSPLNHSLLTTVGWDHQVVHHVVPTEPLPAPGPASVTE

Consider `Cc1cc2nc(N)c3cnn(C)c3c2cc1C(=O)N1CC(F)(F)CN1c1ncccc1F` [Example 455, (4-amino-1,7-dimethyl-1H-pyrazolo[4,3-c]quinolin-8-yl)(4,4-difluoro-2-(3-fluoropyridin-2-yl)pyrazolin-1-yl)methanone], for which the IC50 – broadly, the midpoint of a concentration-inhibition curve – in the assay with HCT116-WT cells came out at 305 nM; in the assay on HCT116 MTAP KO cells, 9.5 nM; on PRMT5-MTA, 10.1 nM. Further, the “Selectivity HCT 116-WT/ HCT116 MTAP KO” value in the assay on HCT116 MTAP KO cells stood at 32.11.

As for `Cc1cc2cc(C(=O)N(Cc3ccc(C(F)(F)F)cn3)N(C)c3ncc4[nH]ccc4n3)ccc2nc1N` [Compound 120, 2-amino-N',3-dimethyl-N'-(5H-pyrrolo[3,2-d]pyrimidin-2-yl)-N-((5-(trifluoromethyl)pyridin-2-yl)methyl)quinoline-6-carbo hydrazide], the IC50 in the assay on HCT116-WT cells is 170 nM; with HCT116 MTAP KO cells, 10 nM; on PRMT5-MTA, 2.5 nM. In the assay on HCT116 MTAP KO cells, the “Selectivity HCT 116-WT/ HCT116 MTAP KO” value is on record as 17.00.

In the case of `Cc1cc2nc(N)c3cnn(C)c3c2cc1C(=O)N1CC(F)CN1c1ncccc1F` (stereo not shown) [Example 450, (4-amino-1,7-dimethyl-1H-pyrazolo[4,3-c]quinolin-8-yl)(4-fluoro-2-(3-fluoropyridin-2-yl)pyrazolidin-1-yl)methanone], the IC50 in the assay on HCT116-WT cells stood at 1220 nM; in the assay with HCT116 MTAP KO cells, 20 nM; on PRMT5-MTA, 3.8 nM. Besides, the “Selectivity HCT 116-WT/ HCT116 MTAP KO” value with HCT116 MTAP KO cells worked out at 61.20.

In the case of `Cc1cc2nc(N)c3cnn(C)c3c2cc1C(=O)N1CC(C)CN1c1ncccc1F` (stereo not shown) [Example 328, (4-amino-1,7-dimethyl-1H-pyrazolo[4,3-c]quinolin-8-yl)(2-(3-fluoropyridin-2-yl)-4-methylpyrazolidin-1-yl)methanone], the values for the IC50 in the assay on HCT116-WT cells, with HCT116 MTAP KO cells and on PRMT5-MTA were 2340 nM, 38 nM and 6.5 nM, respectively. Also, in the assay with HCT116 MTAP KO cells, the “Selectivity HCT 116-WT/ HCT116 MTAP KO” value is listed as 61.63.

Turning to `Cc1cc2nc(N)c3cnn(C)c3c2cc1C(=O)N1CC(C)CN1c1ncccc1Br` (stereo not shown) [Example 370, (4-amino-1,7-dimethyl-1H-pyrazolo[4,3-c]quinolin-8-yl)(2-(3-bromopyridin-2-yl) -4-methylpyrazolidin-1-yl)methanone], the IC50 amounted to 3470 nM in the assay on HCT116-WT cells, 118 nM with HCT116 MTAP KO cells and 5.7 nM on PRMT5-MTA. The “Selectivity HCT 116-WT/ HCT116 MTAP KO” value in the assay with HCT116 MTAP KO cells came out at 29.42.

Consider `Cc1cc2nc(N)c3cnn(C)c3c2cc1C(=O)N1CC(C)CN1c1ncc(C#CCF)cc1F` (stereo not shown) [Example 495, (4-amino-1,7-dimethyl-1H-pyrazolo[4,3-c]quinolin-8-yl)(2-(3-fluoro-5-(3-fluoroprop-1-yn-1-yl)pyridin-2-yl)-4-methylpyrazolidin-1-yl)methanone], for which the results for the IC50 in the assay with HCT116-WT cells, with HCT116 MTAP KO cells and on PRMT5-MTA were 1660 nM, 69 nM and 15 nM, respectively. In addition, the “Selectivity HCT 116-WT/ HCT116 MTAP KO” value in the assay on HCT116 MTAP KO cells was determined as 24.00.

With `Cc1cc2cc(C(=O)N(Cc3ccc(C4CCC4)cn3)N(C)c3ncccn3)ccc2nc1N` [Example 289, 2-amino-N-((5-cyclobutylpyridin-2-yl)methyl)-N',3-dimethyl-N'-(pyrimidin-2-yl)quinoline-6-carbohydrazide], the IC50 amounted to 691 nM in the assay with HCT116-WT cells, 53 nM with HCT116 MTAP KO cells and 0.9 nM on PRMT5-MTA. In the assay with HCT116 MTAP KO cells, the “Selectivity HCT 116-WT/ HCT116 MTAP KO” value came to 13.04.

Turning to `Cc1ncsc1-c1ccc(CN(C(=O)c2ccc3nc(N)c(Br)cc3c2)N(c2ncccn2)C2CC2)nc1` [Example 171, 2-amino-3-bromo-N'-cyclopropyl-N-((5-(4-methylthiazol-5-yl)pyridin-2-yl)methyl)-N'-(pyrimidin-2-yl)quinoline-6-carbohydrazide], the results for the IC50 with HCT116-WT cells, in the assay with HCT116 MTAP KO cells and on PRMT5-MTA were 622 nM, 43 nM and 5.2 nM, respectively. For the same molecule, in the assay on HCT116 MTAP KO cells, the “Selectivity HCT 116-WT/ HCT116 MTAP KO” value amounted to 14.47.

On to `Cc1cc2cc(C(=O)N(Cc3ccc(-c4cn[nH]c4)cn3)N(C)c3ncccn3)ccc2nc1N` [Example 200, N-((5-(1H-pyrazol-4-yl)pyridin-2-yl)methyl)-2-amino-N',3-dimethyl-N'-(pyrimidin-2-yl)quinoline-6-carbohydrazide], for which the figures for the IC50 with HCT116-WT cells, in the assay with HCT116 MTAP KO cells and on PRMT5-MTA were 1240 nM, 36 nM and 1.7 nM, respectively. Besides, in the assay with HCT116 MTAP KO cells, the “Selectivity HCT 116-WT/ HCT116 MTAP KO” value came out at 34.36.

Take `Cc1cc2cc(C(=O)N(Cc3ccc(C(F)(F)F)cn3)N(c3ncccn3)C3CCC3)ccc2nc1N` [Example 83, 2-amino-N'-cyclobutyl-3-methyl-N'-(pyrimidin-2-yl)-N-((5-(trifluoromethyl)pyridin-2-yl)methyl)quinoline-6-carbohydrazide]: the results for the IC50 with HCT116-WT cells, in the assay on HCT116 MTAP KO cells and on PRMT5-MTA were 1930 nM, 134 nM and 4.5 nM, respectively. Further, the “Selectivity HCT 116-WT/ HCT116 MTAP KO” value in the assay on HCT116 MTAP KO cells was 14.39.

As to `Cc1cnc(N2CC(C)CN2C(=O)c2cc3c(cc2C)nc(N)c2cnn(C)c23)c(F)c1` (stereo not shown) [Compound 490, (4-amino-1,7-dimethyl-1H-pyrazolo[4,3-c]quinolin-8-yl)(2-(3-fluoro-5-methylpyridin-2-yl)-4-methylpyrazolidin-1-yl)metha none], the values for the IC50 in the assay on HCT116-WT cells, with HCT116 MTAP KO cells and at PRMT5-MTA were 1010 nM, 26 nM and 5.1 nM, respectively. The “Selectivity HCT 116-WT/ HCT116 MTAP KO” value in the assay on HCT116 MTAP KO cells is reported as 38.96.

On to `Cc1cc2cc(C(=O)N(Cc3ccc(C(F)(F)F)cn3)N(C)c3ncc(C(F)(F)F)cc3F)ccc2nc1N` [Example 102, 2-amino-N'-(3-fluoro-5-(trifluoromethyl)pyridin-2-yl)-N',3-dimethyl-N-((5-(trifluoromethyl)pyridin-2-yl)methyl)quinoline-6-carbohydrazide], for which the figures for the IC50 in the assay on HCT116-WT cells, in the assay with HCT116 MTAP KO cells and at PRMT5-MTA were 3550 nM, 348 nM and 1.7 nM, respectively. Also, the “Selectivity HCT 116-WT/ HCT116 MTAP KO” value in the assay with HCT116 MTAP KO cells was found to be 10.19.

Consider `[2H]C([2H])([2H])c1cc2cc(C(=O)N(Cc3ccc(C(F)(F)F)cn3)N(C)c3ncccn3)ccc2nc1N` [Example 310, 2-amino-N'-methyl-3-(methyl-d3)-N'-(pyrimidin-2-yl)-N-((5-(trifluoromethyl)pyridin-2-yl)methyl)quinoline-6-carbohydrazide], for which the IC50 in the assay with HCT116-WT cells was determined as 1120 nM; with HCT116 MTAP KO cells it was 33 nM; on PRMT5-MTA, 1.8 nM. Also, the “Selectivity HCT 116-WT/ HCT116 MTAP KO” value in the assay with HCT116 MTAP KO cells stood at 34.09.

Take `[2H]C([2H])([2H])N(c1nccc2nccnc12)N(Cc1ccc(Br)cn1)C(=O)c1ccc2nc(N)c(C)cc2c1` [Example 63, 2-amino-N-((5-bromopyridin-2-yl)methyl)-3-methyl-N'-(methyl-d3)-N'-(pyrido[3,4-b]pyrazin-5-yl)quinoline-6-carbohydrazide]: the IC50 in the assay with HCT116-WT cells was found to be 1010 nM; with HCT116 MTAP KO cells, 53 nM; on PRMT5-MTA it was 3.2 nM. In the assay with HCT116 MTAP KO cells, the “Selectivity HCT 116-WT/ HCT116 MTAP KO” value came out at 19.02.

In the case of `Cc1cc2nc(N)c3cnn(C)c3c2cc1C(=O)N1CC(C(F)(F)F)CN1c1cccc(F)n1` (stereo not shown) [Example 352, (4-amino-1,7-dimethyl-1H-pyrazolo[4,3-c]quinolin-8-yl)(2-(6-fluoropyridin-2-yl)-4-(trifluoromethyl)pyrazolidin-1-yl)meth anone], the IC50 in the assay on HCT116-WT cells worked out at 2260 nM; with HCT116 MTAP KO cells, 77 nM; at PRMT5-MTA, 12.5 nM. Moreover, in the assay on HCT116 MTAP KO cells, the “Selectivity HCT 116-WT/ HCT116 MTAP KO” value is 29.42.

Take `Cc1cc2nc(N)c3cnn(C)c3c2cc1C(=O)N1CC(C)CN1c1ccc(F)cc1F` (stereo not shown) [Example 381, (4-amino-1,7-dimethyl-1H-pyrazolo[4,3-c]quinolin-8-yl)(2-(2,4-difluorophenyl)-4-methylpyrazolidin-1-yl)methanone]: the IC50 in the assay on HCT116-WT cells worked out at 2330 nM; in the assay with HCT116 MTAP KO cells it was 63 nM; at PRMT5-MTA, 4 nM. Moreover, in the assay on HCT116 MTAP KO cells, the “Selectivity HCT 116-WT/ HCT116 MTAP KO” value is reported as 36.92.
